Source: PubChem BioAssay AID1919000 (Molecular Pharmacology Branch, DTP, NCI, 2023)

System: 653999-131-R-J2-PDC complex spheroids, growth % test/control
Assay: Anticancer human tumor 653999-131-R-J2-PDC patient-derived lung adenocarcinoma cell line growth inhibition [AhR]
Conditions: for IC50: curve of first compound; for viability, T/C: stronger effect = lower value
Procedure, shortened: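 Complex tumor spheroids co-cultured with HUVEC and human MSC stroma; AhR antagonists tested in combination with standard-of-care and investigational agents. Top concentration at or near clinical Cmax (else 10 microM), half-log dilutions; growth expressed as percent test/control.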

[1] = second compound 0.1 µM, first compound 0.0316 µM
[2] = second compound 0.1 µM, first compound 0.1 µM
[3] = second compound 0.1 µM, first compound 0.316 µM
[4] = second compound 0.1 µM, first compound 1 µM
[5] = second compound 0.1 µM, first compound 3.16 µM
[6] = second compound 0.1 µM, first compound 10 µM
[7] = second compound 0.316 µM, first compound 0.0316 µM
[8] = second compound 0.316 µM, first compound 0.1 µM
[9] = second compound 0.316 µM, first compound 0.316 µM
[10] = second compound 0.316 µM, first compound 1 µM
[11] = second compound 0.316 µM, first compound 3.16 µM
[12] = second compound 0.316 µM, first compound 10 µM
[13] = second compound 1 µM, first compound 0.0316 µM
[14] = second compound 1 µM, first compound 0.1 µM
[15] = second compound 1 µM, first compound 0.316 µM
[16] = second compound 1 µM, first compound 1 µM
[17] = second compound 1 µM, first compound 3.16 µM
[18] = second compound 1 µM, first compound 10 µM
[19] = second compound 3.16 µM, first compound 0.0316 µM
[20] = second compound 3.16 µM, first compound 0.1 µM
[21] = second compound 3.16 µM, first compound 0.316 µM
[22] = second compound 3.16 µM, first compound 1 µM
[23] = second compound 3.16 µM, first compound 3.16 µM
[24] = second compound 3.16 µM, first compound 10 µM
[25] = second compound 10 µM, first compound 0.0316 µM
[26] = second compound 10 µM, first compound 0.1 µM
[27] = second compound 10 µM, first compound 0.316 µM
[28] = second compound 10 µM, first compound 1 µM
[29] = second compound 10 µM, first compound 3.16 µM
[30] = second compound 10 µM, first compound 10 µM
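Further: spheroids exposed to agents for seven days.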
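Wherever viability, T/C is given: 100% = DMSO vehicle control viability.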

| IC50 (second compound 0.1 µM) | IC50 (second compound 0.316 µM) | IC50 (second compound 1 µM) | IC50 (second compound 3.16 µM) | IC50 (second compound 10 µM) | Structure (SMILES) | viability, T/C [1] | viability, T/C [2] | viability, T/C [3] | viability, T/C [4] | viability, T/C [5] | viability, T/C [6] | viability, T/C [7] | viability, T/C [8] | viability, T/C [9] | viability, T/C [10] | viability, T/C [11] | viability, T/C [12] | viability, T/C [13] | viability, T/C [14] | viability, T/C [15] | also measured |
| --- | --- | --- | --- | --- | --- | --- | --- | --- | --- | --- | --- | --- | --- | --- | --- | --- | --- | --- | --- | --- | --- |
| 2.5 µM | 3.46 µM | 2.27 µM | 1.9 µM | 3.48 µM | Nc1ccccc1NC(=O)c1ccc(CNC(=O)OCc2cccnc2)cc1 + Cc1ccccc1N=Nc1ccc(NC(=O)c2ccnn2C)c(C)c1 | 91.9% | 83% | 79.2% | 73.7% | 43.4% | 12.3% | 91.4% | 83.5% | 69% | 64.9% | 62.3% | 14.1% | 83.8% | 85.1% | 70.4% | viability, T/C [16]: 58.5%; viability, T/C [17]: 50.4%; viability, T/C [18]: 13.9%; viability, T/C [19]: 89.3%; viability, T/C [20]: 84.7%; viability, T/C [21]: 70.2%; viability, T/C [22]: 54.4%; viability, T/C [23]: 50.5%; viability, T/C [24]: 13.3%; viability, T/C [25]: 86.4%; viability, T/C [26]: 81.6%; viability, T/C [27]: 71.4%; viability, T/C [28]: 59.6%; viability, T/C [29]: 63.1%; viability, T/C [30]: 13.4% |
| 3.9 µM | 3.26 µM | 3.56 µM | 3.25 µM | 2.86 µM | O=C(C=Cc1cccc(S(=O)(=O)Nc2ccccc2)c1)NO + Cc1ccccc1N=Nc1ccc(NC(=O)c2ccnn2C)c(C)c1 | 110% | 105% | 91.4% | 94.7% | 56.6% | 11.3% | 92.8% | 94.8% | 88% | 90.6% | 51.1% | 9.29% | 99.7% | 101% | 93.2% | viability, T/C [16]: 80.2%; viability, T/C [17]: 54.9%; viability, T/C [18]: 10.3%; viability, T/C [19]: 101%; viability, T/C [20]: 93.1%; viability, T/C [21]: 99%; viability, T/C [22]: 81.5%; viability, T/C [23]: 51.4%; viability, T/C [24]: 10.1%; viability, T/C [25]: 82.6%; viability, T/C [26]: 85.5%; viability, T/C [27]: 76.7%; viability, T/C [28]: 71.8%; viability, T/C [29]: 47.8%; viability, T/C [30]: 7.74% |
| > 10 µM | > 10 µM | > 10 µM | > 10 µM | > 10 µM | O=C(c1cc(Cc2n[nH]c(=O)c3ccccc23)ccc1F)N1CCN(C(=O)C2CC2)CC1 + Cc1ccccc1N=Nc1ccc(NC(=O)c2ccnn2C)c(C)c1 | 106% | 101% | 91% | 92.7% | 88.4% | 77.6% | 96.1% | 101% | 95.5% | 89.3% | 89.6% | 84.3% | 94% | 104% | 94.8% | viability, T/C [16]: 84.2%; viability, T/C [17]: 91.8%; viability, T/C [18]: 82%; viability, T/C [19]: 95.1%; viability, T/C [20]: 94.9%; viability, T/C [21]: 91.5%; viability, T/C [22]: 87.1%; viability, T/C [23]: 85%; viability, T/C [24]: 76.2%; viability, T/C [25]: 89.8%; viability, T/C [26]: 88.3%; viability, T/C [27]: 87%; viability, T/C [28]: 82.3%; viability, T/C [29]: 84.4%; viability, T/C [30]: 72.8% |
